Measured values published in ChEMBL document CHEMBL1201862, “PubChem BioAssay data set” (2004).
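Compound exposure: 48 hours, 5 concentrations, 96-well plates. At the GI50, growth is halved.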 The source made the active and inactive calls. Cut-off read from the data, not from the text of the source: active = GI50 up to about 1.1 µM and inactive = higher.

Tests used:
Assay in all cases: growth of human tumour cells (NCI), 48 h
UACC-62 = tested on: UACC-62
SNB-75 = tested on: SNB-75
TK-10 = tested on: TK-10
SF-268 = tested on: SF-268
HT-29 = tested on: HT-29
SF-295 = tested on: SF-295
SN12C = tested on: SN12C
UO-31 = tested on: UO-31
SK-MEL-28 = tested on: SK-MEL-28
SK-OV-3 = tested on: SK-OV-3
OVCAR-3 = tested on: OVCAR-3
NCI-H23 = tested on: NCI-H23
EKVX = tested on: EKVX
U-251 = tested on: U-251
ACHN = tested on: ACHN
MCF7 = tested on: MCF7
NCI/ADR-RES = tested on: NCI/ADR-RES
MDA-N = tested on: MDA-N
MDA-MB-231 = tested on: MDA-MB-231

| SMILES | GI50 (UACC-62) | GI50 (SNB-75) | GI50 (TK-10) | GI50 (SF-268) | GI50 (HT-29) | GI50 (SF-295) | GI50 (SN12C) | GI50 (UO-31) | GI50 (SK-MEL-28) | GI50 (SK-OV-3) | GI50 (OVCAR-3) | GI50 (NCI-H23) | GI50 (EKVX) | GI50 (U-251) | GI50 (ACHN) | GI50 (MCF7) | GI50 (NCI/ADR-RES) | GI50 (MDA-N) | GI50 (MDA-MB-231) |
| --- | --- | --- | --- | --- | --- | --- | --- | --- | --- | --- | --- | --- | --- | --- | --- | --- | --- | --- | --- |
| O=C(Nc1ccccc1)Oc1ccccc1C1CCCCC1 | 25.5 µM (inactive) | 6.38 µM (inactive) | 28.8 µM (inactive) | 36.3 µM (inactive) | 20.4 µM (inactive) | 17.3 µM (inactive) | 18.9 µM (inactive) | 13.1 µM (inactive) | 29.6 µM (inactive) | 44.5 µM (inactive) | 12.7 µM (inactive) | 14.4 µM (inactive) | 20.1 µM (inactive) | 12 µM (inactive) | – | – | – | – | – |
| CN(C)CC1CCCC/C1=N\OC(=O)c1ccccc1 (stereo not drawn) | > 100 µM (inactive) | > 100 µM (inactive) | > 100 µM (inactive) | > 100 µM (inactive) | > 100 µM (inactive) | > 100 µM (inactive) | > 100 µM (inactive) | > 100 µM (inactive) | > 100 µM (inactive) | > 100 µM (inactive) | > 100 µM (inactive) | > 100 µM (inactive) | > 100 µM (inactive) | > 100 µM (inactive) | > 100 µM (inactive) | – | – | – | – |
| O=C1NC(=O)C2C(=O)NC(=O)C1C2c1c(Cl)cccc1Cl (stereo not drawn) | > 100 µM (inactive) | > 63.5 µM (inactive) | > 100 µM (inactive) | > 51.1 µM (inactive) | > 92.5 µM (inactive) | > 100 µM (inactive) | > 83.6 µM (inactive) | > 100 µM (inactive) | > 100 µM (inactive) | > 100 µM (inactive) | > 100 µM (inactive) | > 100 µM (inactive) | > 100 µM (inactive) | > 66.1 µM (inactive) | > 100 µM (inactive) | – | – | – | – |
| COC1(OC)CC2C(=O)N(Cc3ccccc3)C1C(S(=O)(=O)c1ccccc1)C2S(=O)(=O)c1ccccc1 (stereo not drawn) | 13.4 µM (inactive) | 14.2 µM (inactive) | 15.2 µM (inactive) | 14.1 µM (inactive) | 11.6 µM (inactive) | 45.7 µM (inactive) | 12.7 µM (inactive) | 17.4 µM (inactive) | 13.7 µM (inactive) | 30 µM (inactive) | 10.9 µM (inactive) | 13.6 µM (inactive) | – | 13.6 µM (inactive) | 10.6 µM (inactive) | – | – | – | – |
| CC1(C)CC(c2c[nH]c3ccccc23)=CC2=Nc3ccccc3C21O (stereo not drawn) | > 100 µM (inactive) | 5.94 µM (inactive) | > 100 µM (inactive) | > 100 µM (inactive) | 59.4 µM (inactive) | 38.5 µM (inactive) | > 100 µM (inactive) | > 100 µM (inactive) | 16.4 µM (inactive) | > 100 µM (inactive) | 33.3 µM (inactive) | 34 µM (inactive) | 63.1 µM (inactive) | 33.2 µM (inactive) | > 100 µM (inactive) | – | – | – | – |
| COC(OC)c1cccc2c1C(=O)CCC1(CC2)OCCCCO1 | > 100 µM (inactive) | > 100 µM (inactive) | > 100 µM (inactive) | > 100 µM (inactive) | > 100 µM (inactive) | > 100 µM (inactive) | > 100 µM (inactive) | > 100 µM (inactive) | > 100 µM (inactive) | > 100 µM (inactive) | > 100 µM (inactive) | > 100 µM (inactive) | – | > 100 µM (inactive) | > 100 µM (inactive) | – | – | – | – |
| CCC1CNC(=O)CC1CC(=O)OC (stereo not drawn) | > 100 µM (inactive) | > 100 µM (inactive) | > 100 µM (inactive) | > 100 µM (inactive) | – | – | > 100 µM (inactive) | > 100 µM (inactive) | > 100 µM (inactive) | > 100 µM (inactive) | > 100 µM (inactive) | > 100 µM (inactive) | > 100 µM (inactive) | > 100 µM (inactive) | > 100 µM (inactive) | – | – | – | – |
| CCCCCCCCCCC(=O)CCCCCCC(=O)O | 17.9 µM (inactive) | 29.6 µM (inactive) | 32.1 µM (inactive) | 50.5 µM (inactive) | 18.5 µM (inactive) | 21.5 µM (inactive) | 27.3 µM (inactive) | 23.7 µM (inactive) | 40 µM (inactive) | 53.8 µM (inactive) | 18.2 µM (inactive) | 30.1 µM (inactive) | 31.8 µM (inactive) | 20.7 µM (inactive) | 21.5 µM (inactive) | – | – | – | – |
| COc1cc(C2c3c(ccc4ccccc34)C(=O)C3CCC(=O)N32)cc(OC)c1O (stereo not drawn) | > 25 µM (inactive) | > 25 µM (inactive) | – | – | > 25 µM (inactive) | > 25 µM (inactive) | > 25 µM (inactive) | > 25 µM (inactive) | > 25 µM (inactive) | > 25 µM (inactive) | > 25 µM (inactive) | > 25 µM (inactive) | > 25 µM (inactive) | > 25 µM (inactive) | > 25 µM (inactive) | > 25 µM (inactive) | > 25 µM (inactive) | > 25 µM (inactive) | – |
| N#Cc1ccc(Oc2cccc(Oc3ccccc3)c2)cc1C#N | > 10 µM (inactive) | 1.35 µM (inactive) | > 10 µM (inactive) | 48.2 µM (inactive) | > 10 µM (inactive) | 76.2 µM (inactive) | > 10 µM (inactive) | 14.9 µM (inactive) | 61.7 µM (inactive) | > 10 µM (inactive) | 75.2 µM (inactive) | 44.8 µM (inactive) | 37.5 µM (inactive) | 71.1 µM (inactive) | 54.3 µM (inactive) | – | – | – | – |
| CCC(=O)C(C)C1=Nc2nnc(CCCCCCCc3nnc4n3C(=O)C(C(C)C(=O)CC)=N4)n2C1=O (stereo not drawn) | > 100 µM (inactive) | > 100 µM (inactive) | > 100 µM (inactive) | > 100 µM (inactive) | > 100 µM (inactive) | > 100 µM (inactive) | > 100 µM (inactive) | > 100 µM (inactive) | > 100 µM (inactive) | > 100 µM (inactive) | > 100 µM (inactive) | > 100 µM (inactive) | > 100 µM (inactive) | > 100 µM (inactive) | > 100 µM (inactive) | – | – | – | – |
| COc1nc2c(c(=O)[nH]1)N=C(c1ccccc1)CC(c1ccccc1)N2 (stereo not drawn) | 44.7 µM (inactive) | 15.3 µM (inactive) | – | – | 44.7 µM (inactive) | 49.1 µM (inactive) | 37 µM (inactive) | 39.6 µM (inactive) | 72.9 µM (inactive) | 58.5 µM (inactive) | > 100 µM (inactive) | 74.3 µM (inactive) | 48.9 µM (inactive) | 44.9 µM (inactive) | 30.3 µM (inactive) | 42.2 µM (inactive) | 27.3 µM (inactive) | – | 33 µM (inactive) |
| Cc1c(/C=C2\CC/C(=C\c3[nH]c(C(=O)OC(C)(C)C)c(C)c3C)C2=O)[nH]c(C(=O)OC(C)(C)C)c1C | > 100 µM (inactive) | 60.1 µM (inactive) | > 100 µM (inactive) | > 100 µM (inactive) | > 100 µM (inactive) | > 100 µM (inactive) | > 100 µM (inactive) | > 100 µM (inactive) | – | > 100 µM (inactive) | > 100 µM (inactive) | > 100 µM (inactive) | > 100 µM (inactive) | > 100 µM (inactive) | – | – | – | – | – |
| COc1cc([C@@H]2c3cc4c(cc3[C@@H](NC(=O)c3ccc(OC(C)=O)cc3)C3COC(=O)[C@@H]32)OCO4)cc(OC)c1O (stereo partly drawn) | 0.547 µM (active) | 1.48 µM (inactive) | 10.7 µM (inactive) | 2.01 µM (inactive) | 5.01 µM (inactive) | 2.24 µM (inactive) | 1 µM (active) | 14.3 µM (inactive) | 3.48 µM (inactive) | 2.47 µM (inactive) | 4.84 µM (inactive) | 0.9 µM (active) | 4.18 µM (inactive) | 0.308 µM (active) | 0.689 µM (active) | – | – | – | – |
| Cc1ccc(CCCC(=O)O)cc1C | > 100 µM (inactive) | 39.1 µM (inactive) | > 100 µM (inactive) | 63.7 µM (inactive) | > 100 µM (inactive) | > 100 µM (inactive) | > 100 µM (inactive) | > 100 µM (inactive) | > 100 µM (inactive) | – | > 100 µM (inactive) | > 100 µM (inactive) | > 100 µM (inactive) | > 100 µM (inactive) | > 100 µM (inactive) | – | > 100 µM (inactive) | > 100 µM (inactive) | > 100 µM (inactive) |
| COc1cc(CO)cc2c1[nH]c1ccccc12 [KOENOLINE] | > 25 µM (inactive) | – | > 25 µM (inactive) | > 25 µM (inactive) | > 25 µM (inactive) | – | > 25 µM (inactive) | > 25 µM (inactive) | > 25 µM (inactive) | > 25 µM (inactive) | > 25 µM (inactive) | – | – | > 25 µM (inactive) | > 25 µM (inactive) | – | – | – | – |
| NC1=C(O)c2cccc3cccc(c23)C1=O | > 100 µM (inactive) | > 100 µM (inactive) | > 100 µM (inactive) | > 100 µM (inactive) | > 100 µM (inactive) | > 100 µM (inactive) | > 100 µM (inactive) | 51.6 µM (inactive) | > 100 µM (inactive) | > 100 µM (inactive) | > 100 µM (inactive) | > 100 µM (inactive) | > 100 µM (inactive) | > 100 µM (inactive) | > 100 µM (inactive) | – | – | – | – |
| C[C@H](NS(=O)(=O)c1ccc(NC(=O)c2ccccc2)cc1)C(=O)O | > 100 µM (inactive) | > 100 µM (inactive) | > 100 µM (inactive) | > 100 µM (inactive) | > 100 µM (inactive) | > 100 µM (inactive) | > 100 µM (inactive) | > 100 µM (inactive) | > 100 µM (inactive) | > 100 µM (inactive) | > 100 µM (inactive) | > 100 µM (inactive) | > 100 µM (inactive) | > 100 µM (inactive) | > 100 µM (inactive) | – | – | – | – |
